Data: ChEMBL document CHEMBL3988442, “University of Dundee, Small-Polar-MMV Screening Library” (2021)
Values joined by “and” are separate entries in the source; they are usually repeats but may differ in a detail not shown here. Equal values may be shown once.

Target: Sialic acid-binding Ig-like lectin 9 (Homo sapiens, UniProt Q9Y336)
Assay: Hs-Siglec9 ALPHAscreen SOP 20170721

Chain of Sialic acid-binding Ig-like lectin 9 (Q9Y336 whole entry): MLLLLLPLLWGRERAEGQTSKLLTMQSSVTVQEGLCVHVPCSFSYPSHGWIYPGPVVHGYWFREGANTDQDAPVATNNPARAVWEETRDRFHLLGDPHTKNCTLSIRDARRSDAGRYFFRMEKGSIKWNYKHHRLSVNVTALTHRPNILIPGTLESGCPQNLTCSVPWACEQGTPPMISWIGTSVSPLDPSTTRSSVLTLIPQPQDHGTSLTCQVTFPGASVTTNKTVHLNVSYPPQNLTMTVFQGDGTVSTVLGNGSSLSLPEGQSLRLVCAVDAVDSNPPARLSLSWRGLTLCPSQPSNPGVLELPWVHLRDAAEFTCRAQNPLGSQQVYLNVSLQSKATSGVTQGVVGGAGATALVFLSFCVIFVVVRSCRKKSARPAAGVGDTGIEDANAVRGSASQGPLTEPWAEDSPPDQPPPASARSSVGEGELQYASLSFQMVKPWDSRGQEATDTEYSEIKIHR

| Compound | IC50 |
| --- | --- |
| CN(C)C(=O)COC[C@]12COC[C@H]1CN(Cc1ccco1)C2 | > 30.2 µM |
| Cc1cc(S(=O)(=O)NCC(C)(C)N)c(F)cc1F | > 30.2 µM |
| CC(C)CCS(=O)(=O)N1CCCC(c2nncn2C(C)C)C1 (configuration not stated) | > 30.2 µM |
| COc1ccc(C(C)NCc2ccnn2C)cc1Cn1cccn1 (configuration not stated) | > 30.2 µM |
| O=C(C1CCN(c2nc3nc[nH]c(=O)c3s2)CC1)N1CCCCC1 | > 30.2 µM |
| CN(C)C(=O)CN1CCC2(CC1)COc1ccccc1S(=O)(=O)N(C)C2 | > 30.2 µM |
| Cc1cc(S(=O)(=O)N(CCO)C2CC2)ccc1F | > 30.2 µM |
| CCOCC1CN(Cc2ccsc2)Cc2cnn(C)c21 (configuration not stated) | > 30.2 µM |
| CCN(CC)C(=O)c1nnn(Cc2ccccc2)c1OC | > 30.2 µM |
| CCCN1Cc2ccccc2NC(=O)C12CCNC2 (configuration not stated) | > 30.2 µM |
| CCS(=O)(=O)CCNC(=O)c1cc2n(n1)CCCO2 | > 30.2 µM |
| CN1Cc2ccccc2NC(=O)C12CCNC2 (configuration not stated) | > 30.2 µM |
| CC(C)n1cnnc1C1CCCN(S(=O)(=O)CCCF)C1 (configuration not stated) | > 30.2 µM |
| CN1CCCN(C[C@@H]2CN(c3nc(C(N)=O)cs3)C[C@@H]2CO)CC1 | > 30.2 µM |
| Cc1nccc(N2C[C@@H](CN3CCCC3)[C@@H](CO)C2)n1 | > 30.2 µM |
| CC(c1ccc(Cl)cc1)N1CCN(CCNS(C)(=O)=O)CC1 (configuration not stated) | > 30.2 µM |
| Cc1nc(C2CCCN(c3ncc(Br)cn3)C2)no1 (configuration not stated) | > 30.2 µM |
| CC(C)CCNc1nc(C(=O)NC2CC2)cs1 | > 30.2 µM |
| COCCN(CCOC)C(=O)c1ccoc1C | > 30.2 µM |
| Cc1ccsc1CN1C[C@@H]2COC[C@]2(COCC(=O)N(C)C)C1 | > 30.2 µM |
| CCc1nc(C2CCCN(c3ncc(Br)cn3)C2)no1 (configuration not stated) | > 30.2 µM |

| Compound | IC50 |
| --- | --- |
| CCc1cc(N2CCCC(c3noc(CC)n3)C2)ncn1 (configuration not stated) | > 30.2 µM |
| CC(C)n1cnnc1C1CCCN(S(=O)(=O)CC2CCCC2)C1 (configuration not stated) | > 30.2 µM |
| NC(=O)c1csc(N2C[C@@H](CN3CCC(O)CC3)[C@@H](CO)C2)n1 | > 30.2 µM |
| c1csc(CN2Cc3nccn3CC(Cn3cncn3)C2)n1 (configuration not stated) | > 30.2 µM |
| CCc1nc(C2CCCN2c2ncc(Br)cn2)no1 (configuration not stated) | > 30.2 µM |
| CN1CC2(CCN(CC3CC3)CC2)COc2ccccc2S1(=O)=O | > 30.2 µM |
| NC(=O)c1csc(N2C[C@@H](CN3CCCCC3)[C@@H](CO)C2)n1 | > 30.2 µM |
| Cc1occc1C(=O)N1CCOC2(CCCC2)C1 | > 30.2 µM |
| CNC(=O)C1CCN(c2nc3nc[nH]c(=O)c3s2)CC1 | > 30.2 µM |
| Cc1cc(CNC(=O)c2ccno2)c(C)o1 | > 30.2 µM |
| N#Cc1ccc2c(c1)CN(C(=O)C1CC=CC1)C2c1cnco1 (configuration not stated) | > 30.2 µM |
| O=C1Nc2ccccc2CN(CC2CC2)C12CCNC2 (configuration not stated) | > 30.2 µM |
| CC(=O)NCCCSC1CCN(c2ccccc2Cl)C1=O (configuration not stated) | > 30.2 µM |
| CSc1nccc(N2C[C@@H](CN3CCCCC3)[C@@H](CO)C2)n1 | > 30.2 µM |
| CCOC(=O)CNC(=O)c1cc2n(n1)CCCO2 | > 30.2 µM |
| Cc1ncsc1CCC(=O)NCc1csc(N2CCCC2)n1 | > 30.2 µM |
| CCOC(=O)CNC(=O)c1cccnc1Oc1ccc(Cl)cc1 | > 30.2 µM |
| c1cnc(N2CCC3(CCN(CC4CCCC4)CC3)C2)nc1 | > 30.2 µM |
| CC(C)n1cnnc1CCNCc1cn(CCC(N)=O)c2ccccc12 | > 30.2 µM |
| Cc1cc(CN2C[C@@H]3COC[C@]3(COCC(=O)N(C)C)C2)no1 | > 30.2 µM |
| CC(C)n1cnnc1C1CCCN(S(=O)(=O)c2c[nH]cn2)C1 (configuration not stated) | > 30.2 µM |

| Compound | IC50 |
| --- | --- |
| Cc1cc(S(=O)(=O)NC(C)(C)CN)c(F)cc1F | > 30.2 µM |
| CCn1ncc2c1C(COC)CN(Cc1ccc(C)o1)C2 (configuration not stated) | > 30.2 µM |
| CCOC(=O)[C@H]1[C@@H](O)C(=O)N(C)C12CCN(C(=O)CC(C)(C)C)CC2 | > 30.2 µM |
| COc1ccc([C@@H]2CN(Cc3ccncc3)C[C@H]2c2cc[nH]n2)cc1 | > 30.2 µM |
| c1ccc([C@@H]2CN(Cc3cccnc3)C[C@H]2c2cc[nH]n2)cc1 | > 30.2 µM |
| CN(C)C(=O)COC[C@]12COC[C@H]1CN(Cc1ccoc1)C2 | > 30.2 µM |
| CCn1ncc2c1C(COC)CN(Cc1ccco1)C2 (configuration not stated) | > 30.2 µM |
| CN(C)C(=O)COC[C@]12COC[C@H]1CN(CC1CCC1)C2 | > 30.2 µM |
| COCCN1CCC2(CC1)COc1ccccc1S(=O)(=O)N(C)C2 | > 30.2 µM |
| CN(C)C(=O)COC[C@]12COC[C@H]1CN(Cc1ccccc1)C2 | > 30.2 µM |
| CC(C)NC(=O)C1CCN(c2nc3nc[nH]c(=O)c3s2)CC1 | > 30.2 µM |
| COCCNC(=O)c1nnn(Cc2ccccc2)c1OC | > 30.2 µM |
| c1cnc(N2CCC3(CCCN(CC4CC4)C3)CC2)nc1 | > 30.2 µM |
| CCNC(=O)c1nnn(Cc2ccccc2)c1OC | > 30.2 µM |
| CCOC(=O)[C@H]1[C@@H](O)C(=O)N(C)C12CCN(C(=O)OC)CC2 | > 30.2 µM |
| c1cnc(N2CCC3(CCN(CC4CCOCC4)CC3)C2)nc1 | > 30.2 µM |
| COc1c(C(=O)NCc2cccnc2)nnn1Cc1ccc(C)cc1 | > 30.2 µM |
| Cc1cc(S(=O)(=O)NCC(C)(O)CN(C)C)c(F)cc1F (configuration not stated) | > 30.2 µM |
| CCOC(=O)[C@H]1[C@@H](O)C(=O)N(C)C12CCN(C(=O)C(CC)CC)CC2 | > 30.2 µM |
| CCOC(=O)[C@H]1[C@@H](O)C(=O)N(C)C12CCN(C(=O)CC(C)C)CC2 | > 30.2 µM |
| O=C1Nc2ccccc2CNC12CCN(CC1CCNC1)CC2 (configuration not stated) | > 30.2 µM |

| Compound | IC50 |
| --- | --- |
| COc1ccc(C(C)NCc2cccs2)cc1Cn1cccn1 (configuration not stated) | > 30.2 µM |
| CCc1nc(C2CCCN(c3ncccn3)C2)no1 (configuration not stated) | > 30.2 µM |
| O=C1Nc2ccccc2CNC12CCN(CC1CCCC1)CC2 | > 30.2 µM |
| c1cnc(N2CCC3(CCN(CC4CCOC4)CC3)C2)nc1 (configuration not stated) | > 30.2 µM |
| Cc1cccc(CN2C[C@@H]3COC[C@]3(COCC(=O)N(C)C)C2)n1 | > 30.2 µM |
| c1cnc(N2CCCC3(CCN(CC4CCOC4)CC3)C2)nc1 (configuration not stated) | > 30.2 µM |
| Cc1nc(CN2C[C@@H]3COC[C@]3(COCC(=O)N(C)C)C2)cs1 | > 30.2 µM |
| FC(F)(F)c1cc(C2CCCN(c3ncccn3)C2)n2ccnc2n1 (configuration not stated) | > 30.2 µM |
| COc1ccc(C(C)NCc2cscn2)cc1Cn1cccn1 (configuration not stated) | > 30.2 µM |
| CS(=O)(=O)N1Cc2ccnn2CC(C(=O)NCc2cccnc2)C1 (configuration not stated) | > 30.2 µM |
| CCc1cc(N2CCN3CCCCC3C2)n2nccc2n1 (configuration not stated) | > 30.2 µM |
| CN(C)C(=O)COC[C@]12COC[C@H]1CN(CCc1ccccc1)C2 | > 30.2 µM |
| COc1ccc(C(C)NCc2scnc2C)cc1Cn1cccn1 (configuration not stated) | > 30.2 µM |
| CCOC(=O)[C@@H]1[C@@H](OC)C(=O)N(C)C12CCN(C(=O)C(CC)CC)CC2 | > 30.2 µM |
| c1ccc([C@@H]2CN(Cc3ccncc3)C[C@H]2c2cc[nH]n2)cc1 | > 30.2 µM |
| CCOC(=O)[C@@H]1[C@@H](O)C(=O)N(C)C12CCN(C(=O)OC)CC2 | > 30.2 µM |
| COCC(=O)N1CCC2(CC1)COc1ccccc1S(=O)(=O)N(C)C2 | > 30.2 µM |
| O=C(C1CCOCC1)N1CCO[C@H]2[C@H](Oc3ccccn3)CC[C@@H]21 | > 30.2 µM |
| CCC(=O)NCC(=O)NCc1cc(Br)ccc1OC(F)F | > 30.2 µM |

The remaining lines, values ahead:

| IC50 | Compound |
| --- | --- |
| > 30.2 µM | COC(=O)C(O)C1CCN(CCc2ccncc2)CC1 (configuration not stated) |
| > 30.2 µM | Cc1oc(C)c(C(=O)NCc2cccnc2)c1C |
| > 30.2 µM | CCn1c(C)cc(C(=O)N2CCC(NC(=O)c3cc(C)no3)CC2)c1C |
| > 30.2 µM | CCc1nc(C2CCCN(c3nccc(C)n3)C2)no1 (configuration not stated) |
| > 30.2 µM | CCOC(=O)[C@@H]1[C@@H](O)C(=O)N(C)C12CCN(C(=O)c1ccco1)CC2 |
| > 30.2 µM | CCn1c(C)cc(C(=O)N2CCC(Nc3cccnn3)CC2)c1C |
| > 30.2 µM | CC(C)c1cc(C(=O)N2CCCC(c3cc(=O)nc4n3CCC4)C2)no1 (configuration not stated) |
| > 30.2 µM | COC(=O)C(O)C1CCN(CCc2ccc(C)cc2)CC1 (configuration not stated) |
| > 30.2 µM | CN1CC2(CCN(C(=O)C3CCC3)CC2)COc2ccccc2S1(=O)=O |
| > 30.2 µM | Cc1cc(C(=O)N2CCNC(=O)CC2)c(C)n1CC(F)(F)F |
| > 30.2 µM | CCC(=O)N1CCC2(CC1)COc1ccccc1S(=O)(=O)N(C)C2 |
| > 30.2 µM | Cc1ccnc(NC(=O)c2cc(C)oc2C)c1 |
| > 30.2 µM | O=C(NCCc1nncn1C1CC1)C1(Cc2ccccc2)CCC1 |
| > 30.2 µM | Cc1cc(N2CCCC(c3nncn3C3CC3)C2)ncn1 (configuration not stated) |
| > 30.2 µM | CCc1cc(C(=O)N2CCCC(c3cc(=O)nc4n3CCC4)C2)no1 (configuration not stated) |
| > 30.2 µM | O=C(c1cscn1)N1CCO[C@H]2[C@@H](Oc3ccccn3)CC[C@@H]21 |
| > 30.2 µM | Cc1occc1C(=O)N1CCO[C@H]2[C@H](Oc3cccnc3)CC[C@@H]21 |
| > 30.2 µM | CCN1CC2(CCN(C(=O)N(C)C)CC2)COc2ccccc2S1(=O)=O |
| > 30.2 µM | CCc1cc(N2CCC(N3CCSCC3)CC2)n2nccc2n1 |
| > 30.2 µM | CC(C)NC(=O)N1CCC2(CC1)COc1ccccc1S(=O)(=O)N(C)C2 |

| IC50 | Compound |
| --- | --- |
| > 30.2 µM | Cc1cncc(C(=O)N2CCO[C@H]3[C@H](Oc4ccccn4)CC[C@@H]32)c1 |
| > 30.2 µM | CCN(C(=O)c1cc(C)oc1C)C1CC1 |
| 9.22 µM and 7.13 µM and 9.36 µM and 3.87 µM | Cc1nc(C)c(C(=O)N2CCC(Nc3cccnc3)CC2)s1 |
| > 30.2 µM | Cc1cc(C(=O)N2CCO[C@H]3[C@H](Oc4ccccn4)CC[C@@H]32)c(C)[nH]1 |
| > 30.2 µM | O=C(N1CCCC1)N1CCO[C@H]2[C@@H](Oc3ccccn3)CC[C@@H]21 |
| > 30.2 µM | O=C(NCCc1nncn1C1CC1)c1cnn(Cc2ccccc2)c1 |
| 14.5 µM and > 30.2 µM | Cc1ccsc1C(=O)N1CCC(Nc2cccnc2)CC1 |
| > 30.2 µM | Cc1cnn(CC2CCCN2C(=O)c2cccc(-n3ccc(C)n3)c2)c1 (configuration not stated) |
| > 30.2 µM | COc1cc(C)sc1C(=O)N1CC(c2cccnc2)C1 |
| > 30.2 µM | O=C(NCC1(O)CCC1)c1cccc(-n2cccn2)c1 |
| > 30.2 µM | COCCC1(C(=O)NCCc2nncn2C2CC2)CCC1 |
| > 30.2 µM | O=C(NCCc1nncn1C1CC1)C1(c2ccccc2)CCC1 |
| > 30.2 µM | CC(C)CC1(C(=O)NCCc2nncn2C2CC2)CCC1 |
| > 30.2 µM | O=C1Nc2ccccc2CNC12CCN(CC1CC1)CC2 |
| > 30.2 µM | Cc1occc1C(=O)N1CCO[C@H]2[C@H](OCc3ccccn3)CC[C@@H]21 |
| > 30.2 µM | Cc1oc(C)c(C(=O)Nc2ccccn2)c1C |
| > 30.2 µM | Cc1cc(C(=O)N2CC[C@](C)(O)[C@H](C)C2)c(C)n1C |
| > 30.2 µM | Cc1cc(C(=O)NC2CC(=O)N(C(C)C)C2=O)c(C)n1C(C)C (configuration not stated) |
| > 30.2 µM | Cc1cc(C(=O)N2CCC(Nc3cccnc3)CC2)c(C)s1 |
| > 30.2 µM | CC(=O)N1Cc2ccnn2CC(C(=O)NCc2cccnc2)C1 (configuration not stated) |
